Laboratory results published in US20230172914A1, “BIOMARKER-BASED THERAPEUTIC COMPOSITION” (WELLMARKER BIO CO., LTD., priority 2019, published 2023).

What was measured:
[1] = system: Colo320HSR cell line overexpressing RON mutants (mt #1: Δ160, mt #2: Δ155); test: Drug efficacy after overexpression of RON mutants in Colo320HSR (trypan blue, Western blotting); assay type: cell-based
Description: Efficacy analysis for RON mutants was performed by overexpressing RON mutants, and then identifying cell death-inducing ability through Western blotting. Colo320HSR cell line was seeded onto a 100-mm plate, and then a RON mutant #1 (Δ160)- or RON mutant #2 (Δ155)-expressing vector was introduced into the cell line using a transfection solution (Polyplus). After 24 hours, the cell line was seeded onto a 60-mm plate at 2×10^5 cells. Then, after 24 hours, while performing medium exchange, the cells were subjected to treatment with Example 18 at respective concentrations (1 μM, 5 μM) for 48 hours.
After 48 hours, the cells and cell suspensions were collected (1,500 rpm, 3 minutes), and live cells and dead cells were quantitated (n=2) through trypan blue exclusion assay. Subsequently, the remaining cells were collected and lysed by adding RIPA Lysis Buffer (T&I) to the respective cells for the purpose of identifying, with Western blotting, inhibitory capacity on active RON and cell death-inducing ability. Then, proteins were quantified by BCA kit (Pierce).
Subsequently, the proteins were reacted with primary antibodies (active RON, cleaved caspase-3, beta actin), which were diluted 1:1,000 in 5% non-fat skim milk-TBST solution, at 4° C. for 24 hours or 48 hours. Then, washing with TBST was performed three times. The resultant was reacted with anti-rabbit and anti-mouse IgG conjugated horseradish peroxidase (HRP) secondary antibodies, which were diluted at 1:1,000, at room temperature for 2 hours. Then, washing with TBST was washed three times. Subsequently, the membrane was treated with the ECL solution (GE Healthcare), and developed by exposure to an X-ray film. Then, the bands were checked.

[2] = system: KM12C cell line tumor; test: Efficacy in animal model transplanted with KM12C, 30 and 50 mpk (Experimental Example 11); assay type: in vivo, BALB/c nude mice; conditions: once a day for 2 weeks
Description: 5-Week-old female BALB/c nude mice were purchased and acclimatized for 1 week. Then, human-derived colon cancer cell line KM12C (1.5×10^6 cells/mice) was diluted in PBS, and injected subcutaneously (100 μl) into the right dorsal side of the mice. Comparative Examples 1 and Example 18 were orally administered when the tumor reached a size of about 100 mm^3. The drug was administered at 30 mpk and 50 mpk once a day for 2 weeks, and tumor size and body weight were measured twice a week. […] After completion of the drug administration, the experimental animals were euthanized, and then the tumors were extracted and weighed to perform comparative analysis.

[3] = RON mutant-transfected Colo320HSR

Compound: CCOc1ccn(-c2ccc(F)cc2)c(=O)c1C(=O)Nc1ccc(Oc2ccnc3cc(-c4ccc(CN5CCOCC5)cn4)sc23)c(F)c1.Cl [Example 18, 4-ethoxy-N-[3-fluoro-4-({2-[5-(morpholinomethyl)pyridin-2-yl]thieno[3,2-b]pyridine-7-yl}oxy)phenyl]-1-(4-fluorophenyl)-2-oxo-1,2-dihydropyridine-3-carboxamide hydrochloride]
- cell death (trypan blue exclusion assay) ([1]; 1 μM, 5 μM, 48 hours, group transfected with RON mutant): cell death induction at the respective concentrations is observed
- active RON expression level (Western blotting) [1, 3]: decreased expression level
- cleaved caspase 3 expression level (Western blotting) [1, 3]: increased expression level
- TGI (%) ([2]; 30 mg/kg oral): 82.4%
- TGI (%) ([2]; 50 mg/kg oral): 84.8%
- change in mouse body weight ([2]; 30 mpk and 50 mpk oral): little change in mouse body weight
- tumor growth inhibition efficacy ([2]; 30 mpk and 50 mpk oral): very high tumor growth inhibition efficacy
